Experimental data: ChEMBL document CHEMBL1201862, “PubChem BioAssay data set” (2004)
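Values below derive from 48-hour exposures of cells grown in 96-well plates, with endpoints linearly interpolated between the two concentrations bracketing the appropriate inhibition level. GI50 marks 50% less growth.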 Calls of active or inactive are those of the source. No stated cut-off is given here; in the data, active = GI50 up to about 1.1 µM and inactive = higher.

How the values were obtained:
Assay in all cases: NCI tumour cell line growth inhibition, 48 h
NCI-H23 = test system: NCI-H23
UACC-257 = test system: UACC-257
SF-295 = test system: SF-295
SF-268 = test system: SF-268
TK-10 = test system: TK-10
A549 = test system: A549
MDA-MB-231 = test system: MDA-MB-231
K562 = test system: K562
SNB-75 = test system: SNB-75
SK-OV-3 = test system: SK-OV-3
T47D = test system: T47D
MCF7 = test system: MCF7
HL-60 = test system: HL-60
HOP-62 = test system: HOP-62
MDA-MB-435 = test system: MDA-MB-435
Malme-3M = test system: Malme-3M
IGROV-1 = test system: IGROV-1
CCRF-CEM = test system: CCRF-CEM
RXF 393 = test system: RXF 393
HOP-92 = test system: HOP-92
SR = test system: SR
LOX IMVI = test system: LOX IMVI
RPMI-8226 = test system: RPMI-8226
HT-29 = test system: HT-29
PC-3 = test system: PC-3
SN12C = test system: SN12C
EKVX = test system: EKVX
DU-145 = test system: DU-145
HCT-15 = test system: HCT-15
OVCAR-4 = test system: OVCAR-4
MOLT-4 = test system: MOLT-4
COLO 205 = test system: COLO 205
SW-620 = test system: SW-620
OVCAR-8 = test system: OVCAR-8
CAKI-1 = test system: CAKI-1
786-0 = test system: 786-0
SK-MEL-28 = test system: SK-MEL-28
KM12 = test system: KM12
UACC-62 = test system: UACC-62
MDA-N = test system: MDA-N
M14 = test system: M14
SK-MEL-5 = test system: SK-MEL-5
HCC 2998 = test system: HCC 2998
OVCAR-3 = test system: OVCAR-3
U-251 = test system: U-251
SK-MEL-2 = test system: SK-MEL-2
UO-31 = test system: UO-31
OVCAR-5 = test system: OVCAR-5
Hs-578T = test system: Hs-578T
NCI-H522 = test system: NCI-H522
SF-539 = test system: SF-539
ACHN = test system: ACHN
A498 = test system: A498
NCI-H226 = test system: NCI-H226
HCT-116 = test system: HCT-116
NCI-H460 = test system: NCI-H460
NCI/ADR-RES = test system: NCI/ADR-RES
SNB-19 = test system: SNB-19

COC(=O)CSc1[nH]c2nc(C)nc(Nc3ccccc3)c2c1C#N
GI50 (NCI-H23): > 10 µM (inactive)
GI50 (UACC-257): > 10 µM (inactive)
GI50 (SF-295): > 10 µM (inactive)
GI50 (SF-268): > 10 µM (inactive)
GI50 (TK-10): > 10 µM (inactive)
GI50 (A549): > 10 µM (inactive)
GI50 (MDA-MB-231): > 10 µM (inactive)
GI50 (K562): > 10 µM (inactive)
GI50 (SNB-75): > 10 µM (inactive)
GI50 (SK-OV-3): > 10 µM (inactive)
GI50 (T47D): > 10 µM (inactive)
GI50 (MCF7): > 10 µM (inactive)
GI50 (HL-60): > 10 µM (inactive)
GI50 (HOP-62): > 10 µM (inactive)
GI50 (MDA-MB-435): > 10 µM (inactive)
GI50 (Malme-3M): > 10 µM (inactive)
GI50 (IGROV-1): > 10 µM (inactive)
GI50 (CCRF-CEM): > 10 µM (inactive)
GI50 (RXF 393): > 10 µM (inactive)
GI50 (HOP-92): 9.42 µM (inactive)
GI50 (SR): > 10 µM (inactive)
GI50 (LOX IMVI): > 10 µM (inactive)
GI50 (RPMI-8226): > 10 µM (inactive)
GI50 (HT-29): > 10 µM (inactive)
GI50 (PC-3): > 10 µM (inactive)
GI50 (SN12C): > 10 µM (inactive)
GI50 (EKVX): > 10 µM (inactive)
GI50 (DU-145): > 10 µM (inactive)
GI50 (HCT-15): > 10 µM
GI50 (OVCAR-4): > 10 µM (inactive)
GI50 (MOLT-4): > 10 µM (inactive)
GI50 (COLO 205): > 10 µM (inactive)
GI50 (SW-620): > 10 µM (inactive)
GI50 (OVCAR-8): > 10 µM (inactive)
GI50 (CAKI-1): > 10 µM (inactive)
GI50 (786-0): > 10 µM (inactive)
GI50 (SK-MEL-28): > 10 µM (inactive)
GI50 (KM12): > 10 µM (inactive)
GI50 (UACC-62): > 10 µM (inactive)
GI50 (MDA-N): > 10 µM (inactive)
GI50 (M14): > 10 µM (inactive)
GI50 (SK-MEL-5): > 10 µM (inactive)
GI50 (HCC 2998): > 10 µM (inactive)

O=[N+]([O-])c1cc(Cl)c(Cl)cc1[N+](=O)[O-]
GI50 (OVCAR-3): 1.48 µM (inactive)
GI50 (NCI-H23): 2.14 µM (inactive)
GI50 (U-251): 2 µM (inactive)
GI50 (UACC-257): 2.15 µM (inactive)
GI50 (SK-MEL-2): 2.44 µM (inactive)
GI50 (SF-295): 3.08 µM (inactive)
GI50 (SF-268): 1.81 µM (inactive)
GI50 (TK-10): 3.55 µM (inactive)
GI50 (A549): 2.29 µM (inactive)
GI50 (MDA-MB-231): 2.25 µM (inactive)
GI50 (K562): 2.43 µM (inactive)
GI50 (SNB-75): 3.6 µM (inactive)
GI50 (UO-31): 1.93 µM (inactive)
GI50 (T47D): 3.24 µM (inactive)
GI50 (OVCAR-5): 2.51 µM (inactive)
GI50 (MCF7): 2.06 µM (inactive)
GI50 (HL-60): 1.9 µM (inactive)
GI50 (HOP-62): 2.74 µM (inactive)
GI50 (MDA-MB-435): 4.07 µM (inactive)
GI50 (Hs-578T): 13.9 µM (inactive)
GI50 (Malme-3M): 2.74 µM (inactive)
GI50 (IGROV-1): 1.98 µM (inactive)
GI50 (CCRF-CEM): 5.94 µM (inactive)
GI50 (RXF 393): 1.63 µM (inactive)
GI50 (NCI-H522): 1.87 µM (inactive)
GI50 (SR): 1.89 µM (inactive)
GI50 (LOX IMVI): 2.37 µM (inactive)
GI50 (RPMI-8226): 4.17 µM (inactive)
GI50 (HT-29): 4.16 µM (inactive)
GI50 (PC-3): 1.74 µM (inactive)
GI50 (SN12C): 1.91 µM (inactive)
GI50 (EKVX): 2.83 µM (inactive)
GI50 (DU-145): 2.07 µM (inactive)
GI50 (SF-539): 2.13 µM (inactive)
GI50 (ACHN): 2.56 µM (inactive)
GI50 (HCT-15): 2.85 µM
GI50 (OVCAR-4): 2.48 µM (inactive)
GI50 (MOLT-4): 0.212 µM (active)
GI50 (A498): 18.5 µM (inactive)
GI50 (COLO 205): 5.77 µM (inactive)
GI50 (SW-620): 2.91 µM (inactive)
GI50 (NCI-H226): 3.89 µM (inactive)
GI50 (OVCAR-8): 2.91 µM (inactive)
GI50 (CAKI-1): 2.34 µM (inactive)
GI50 (786-0): 2.8 µM (inactive)
GI50 (HCT-116): 20.1 µM (inactive)
GI50 (SK-MEL-28): 2.64 µM (inactive)
GI50 (KM12): 3.27 µM (inactive)
GI50 (UACC-62): 2.23 µM (inactive)
GI50 (NCI-H460): 3.24 µM (inactive)
GI50 (M14): 3.51 µM (inactive)
GI50 (SK-MEL-5): 14.6 µM (inactive)
GI50 (NCI/ADR-RES): 4.18 µM (inactive)

NS(=O)(=O)c1ccc(/C=C/c2ccc(F)cc2)cc1
GI50 (OVCAR-3): 16.7 µM (inactive)
GI50 (UACC-257): > 100 µM (inactive)
GI50 (SK-MEL-2): 20.7 µM (inactive)
GI50 (SF-295): 28.9 µM (inactive)
GI50 (TK-10): 21.3 µM (inactive)
GI50 (MDA-MB-231): 9.53 µM (inactive)
GI50 (SNB-75): 31.6 µM (inactive)
GI50 (SK-OV-3): 23.8 µM (inactive)
GI50 (UO-31): 20.7 µM (inactive)
GI50 (T47D): 14.9 µM (inactive)
GI50 (OVCAR-5): > 100 µM (inactive)
GI50 (MCF7): 23.9 µM (inactive)
GI50 (HOP-62): 34 µM (inactive)
GI50 (Malme-3M): 40.5 µM (inactive)
GI50 (RXF 393): 15.6 µM (inactive)
GI50 (PC-3): 39 µM (inactive)
GI50 (SN12C): 25.8 µM (inactive)
GI50 (EKVX): 47.3 µM (inactive)
GI50 (DU-145): 50.1 µM (inactive)
GI50 (SNB-19): 33.9 µM (inactive)
GI50 (A498): 29.4 µM (inactive)
GI50 (COLO 205): 24.8 µM (inactive)
GI50 (SW-620): 17.1 µM (inactive)
GI50 (786-0): 21.2 µM (inactive)
GI50 (HCT-116): 16.9 µM (inactive)
GI50 (SK-MEL-28): 47.4 µM (inactive)
GI50 (NCI-H460): 23.5 µM (inactive)
GI50 (MDA-N): 43.5 µM (inactive)
GI50 (M14): 79.4 µM (inactive)
GI50 (NCI/ADR-RES): 26.3 µM (inactive)
GI50 (HCC 2998): 51.8 µM (inactive)
